In the NIST ThermoML archive (doi:10.1021/acs.jced.8b00358):

Key:
[1] = 83 kPa, Liquid; for speed of sound: Frequency=3 MHz, Single path-length method; for mass density: Vibrating tube method
[2] = molar heat capacity at constant pressure; settings: 83 kPa, Liquid, DSC

CCCCC(=O)OCC(COC(=O)CCCC)(COC(=O)CCCC)COC(=O)CCCC [pentaerythritol tetrapentanoate]
Settings | mass density [kg/m3] | molar heat capacity at constant pressure [J/K/mol] | speed of sound [m/s]
[1], 278.15 K | 1030.29 | – | 1417.7
[1], 283.15 K | 1026.21 | – | 1400.3
[1], 288.15 K | 1022.14 | – | 1383.2
[1], 293.15 K | 1018.08 | – | 1366.2
[1], 298.15 K | 1014.04 | – | 1349.3
[1], 303.15 K | 1010 | – | 1332.7
[1], 308.15 K | 1005.97 | – | 1316.2
[1], 313.15 K | 1001.94 | – | 1299.8
[1], 318.15 K | 997.92 | – | 1283.6
[1], 323.15 K | 993.9 | – | 1267.6
[1], 328.15 K | 989.89 | – | 1251.8
[1], 333.15 K | 985.88 | – | 1236.1
[1], 338.15 K | 981.88 | – | 1220.5
[1], 343.15 K | 977.88 | – | 1205.2
[2], 263.14 K | – | 805.33 | –
[2], 264.15 K | – | 806.28 | –
[2], 265.15 K | – | 807.22 | –
[2], 266.14 K | – | 808.17 | –
[2], 267.14 K | – | 809.11 | –
[2], 268.15 K | – | 809.58 | –
[2], 269.14 K | – | 810.53 | –
[2], 270.14 K | – | 811.47 | –
[2], 271.15 K | – | 812.42 | –
[2], 272.14 K | – | 813.37 | –
[2], 273.14 K | – | 814.78 | –
[2], 274.14 K | – | 815.73 | –
[2], 275.15 K | – | 816.67 | –
[2], 276.14 K | – | 817.62 | –
[2], 277.14 K | – | 819.04 | –
[2], 278.15 K | – | 819.98 | –
[2], 279.15 K | – | 820.93 | –
[2], 280.15 K | – | 821.87 | –
[2], 281.14 K | – | 822.82 | –
[2], 282.15 K | – | 823.76 | –
[2], 283.15 K | – | 824.71 | –
[2], 284.15 K | – | 825.65 | –
[2], 285.15 K | – | 827.07 | –
[2], 286.14 K | – | 828.02 | –
[2], 287.14 K | – | 828.96 | –
[2], 288.15 K | – | 829.91 | –
[2], 289.15 K | – | 831.32 | –
[2], 290.14 K | – | 832.27 | –
[2], 291.14 K | – | 833.69 | –
[2], 292.14 K | – | 835.11 | –
[2], 293.14 K | – | 836.05 | –
[2], 294.15 K | – | 837.47 | –
[2], 295.14 K | – | 838.89 | –
[2], 296.15 K | – | 839.83 | –
[2], 297.14 K | – | 841.25 | –
[2], 298.14 K | – | 842.67 | –
[2], 299.15 K | – | 843.61 | –
[2], 300.14 K | – | 845.03 | –
[2], 301.15 K | – | 846.45 | –
[2], 302.14 K | – | 847.39 | –
[2], 303.15 K | – | 848.81 | –
[2], 304.15 K | – | 850.23 | –
[2], 305.14 K | – | 851.17 | –
[2], 306.15 K | – | 852.12 | –
[2], 307.15 K | – | 853.54 | –
[2], 308.14 K | – | 854.48 | –
[2], 309.14 K | – | 855.9 | –
[2], 310.15 K | – | 857.32 | –
[2], 311.15 K | – | 858.26 | –
[2], 312.14 K | – | 859.68 | –
[2], 313.15 K | – | 860.63 | –
[2], 314.14 K | – | 862.04 | –
[2], 315.15 K | – | 863.46 | –
[2], 316.14 K | – | 864.41 | –
[2], 317.15 K | – | 865.83 | –
[2], 318.15 K | – | 866.77 | –
[2], 319.14 K | – | 868.19 | –
[2], 320.15 K | – | 869.61 | –
[2], 321.15 K | – | 870.55 | –
[2], 322.14 K | – | 871.97 | –
[2], 323.14 K | – | 873.39 | –
[2], 324.15 K | – | 874.33 | –
[2], 325.14 K | – | 875.75 | –
[2], 326.15 K | – | 876.7 | –
[2], 327.15 K | – | 878.11 | –
[2], 328.15 K | – | 879.53 | –
[2], 329.14 K | – | 880.48 | –
[2], 330.15 K | – | 881.89 | –
[2], 331.15 K | – | 883.31 | –
[2], 332.14 K | – | 884.26 | –
[2], 333.14 K | – | 885.68 | –
[2], 334.15 K | – | 887.09 | –
[2], 335.14 K | – | 888.51 | –
[2], 336.14 K | – | 889.93 | –
[2], 337.14 K | – | 891.35 | –
[2], 338.14 K | – | 892.29 | –
[2], 339.15 K | – | 893.71 | –
[2], 340.14 K | – | 895.13 | –
[2], 341.14 K | – | 896.07 | –
[2], 342.15 K | – | 897.02 | –
[2], 343.14 K | – | 898.44 | –
[2], 344.15 K | – | 899.38 | –
[2], 345.15 K | – | 900.8 | –
[2], 346.15 K | – | 902.22 | –
[2], 347.14 K | – | 903.16 | –
[2], 348.14 K | – | 904.58 | –
[2], 349.15 K | – | 906 | –
[2], 350.14 K | – | 907.42 | –
[2], 351.14 K | – | 908.36 | –
[2], 352.14 K | – | 909.78 | –
[2], 353.14 K | – | 911.2 | –
[2], 354.15 K | – | 912.61 | –
[2], 355.14 K | – | 913.56 | –
[2], 356.15 K | – | 914.98 | –
[2], 357.15 K | – | 916.39 | –
[2], 358.14 K | – | 917.81 | –
[2], 359.15 K | – | 918.76 | –
[2], 360.15 K | – | 920.18 | –
[2], 361.14 K | – | 921.59 | –
[2], 362.15 K | – | 922.54 | –
[2], 363.15 K | – | 923.96 | –
[2], 364.14 K | – | 925.37 | –
[2], 365.14 K | – | 926.79 | –
[2], 366.15 K | – | 927.74 | –
[2], 367.14 K | – | 929.16 | –
[2], 368.14 K | – | 930.57 | –
[2], 369.14 K | – | 931.99 | –
[2], 370.14 K | – | 933.41 | –
[2], 371.15 K | – | 934.35 | –
[2], 372.14 K | – | 935.77 | –
[2], 373.14 K | – | 937.19 | –
[2], 374.15 K | – | 938.61 | –
[2], 375.14 K | – | 939.55 | –
[2], 376.14 K | – | 940.97 | –
[2], 377.14 K | – | 942.39 | –
[2], 378.15 K | – | 943.81 | –
[2], 379.15 K | – | 944.75 | –
[2], 380.14 K | – | 946.17 | –
[2], 381.15 K | – | 947.59 | –
[2], 382.14 K | – | 949.01 | –
[2], 383.14 K | – | 950.42 | –
[2], 384.14 K | – | 951.84 | –
[2], 385.15 K | – | 952.79 | –
[2], 386.14 K | – | 954.2 | –
[2], 387.14 K | – | 955.62 | –
[2], 388.15 K | – | 957.04 | –
[2], 389.15 K | – | 957.98 | –
[2], 390.14 K | – | 959.4 | –
[2], 391.15 K | – | 960.82 | –
[2], 392.15 K | – | 961.77 | –
[2], 393.15 K | – | 963.18 | –
[2], 394.15 K | – | 964.13 | –
[2], 395.15 K | – | 965.55 | –
[2], 396.14 K | – | 966.96 | –
[2], 397.14 K | – | 968.38 | –
[2], 398.14 K | – | 969.8 | –
[2], 399.14 K | – | 971.22 | –
[2], 400.15 K | – | 972.16 | –
[2], 401.14 K | – | 973.58 | –
[2], 402.14 K | – | 975 | –
[2], 403.15 K | – | 975.94 | –
[2], 404.15 K | – | 977.36 | –
[2], 405.14 K | – | 978.78 | –
[2], 406.15 K | – | 979.72 | –
[2], 407.14 K | – | 981.14 | –
[2], 408.14 K | – | 982.56 | –
[2], 409.14 K | – | 983.51 | –
[2], 410.15 K | – | 984.92 | –
[2], 411.15 K | – | 986.34 | –
[2], 412.14 K | – | 987.76 | –
[2], 413.15 K | – | 988.7 | –
[2], 414.15 K | – | 990.12 | –
[2], 415.15 K | – | 991.54 | –
[2], 416.14 K | – | 992.96 | –
[2], 417.15 K | – | 993.9 | –
[2], 418.15 K | – | 995.32 | –
[2], 419.15 K | – | 996.27 | –
[2], 420.14 K | – | 997.68 | –
[2], 421.15 K | – | 999.1 | –
[2], 422.15 K | – | 1000 | –
[2], 423.15 K | – | 1001.5 | –
[2], 424.14 K | – | 1002.9 | –
[2], 425.15 K | – | 1004.3 | –
[2], 426.15 K | – | 1005.2 | –
[2], 427.14 K | – | 1006.7 | –
[2], 428.15 K | – | 1008.1 | –
[2], 429.15 K | – | 1009 | –
[2], 430.14 K | – | 1010.4 | –
[2], 431.15 K | – | 1011.4 | –
[2], 432.15 K | – | 1012.8 | –
